Measurements: patent US20050282818A1, “Ubiquitin ligase inhibitors” (Rigel Pharmaceuticals, Inc., priority 2004, published 2005)
pIC50: −log10 of the molar value. Read-outs that look alike come from different tables or passages of the source.

Assays:
TRAF6/Uev1A/Ubc13 = target: T1, TRAF6/Uev1A/Ubc13 (Homo sapiens, UniProt Q9Y4K3); test: TRAF6/Uev1A/Ubc13 plate-based ubiquitin ligase assay; format: biochemical
T1 sequence (Q9Y4K3 1-522): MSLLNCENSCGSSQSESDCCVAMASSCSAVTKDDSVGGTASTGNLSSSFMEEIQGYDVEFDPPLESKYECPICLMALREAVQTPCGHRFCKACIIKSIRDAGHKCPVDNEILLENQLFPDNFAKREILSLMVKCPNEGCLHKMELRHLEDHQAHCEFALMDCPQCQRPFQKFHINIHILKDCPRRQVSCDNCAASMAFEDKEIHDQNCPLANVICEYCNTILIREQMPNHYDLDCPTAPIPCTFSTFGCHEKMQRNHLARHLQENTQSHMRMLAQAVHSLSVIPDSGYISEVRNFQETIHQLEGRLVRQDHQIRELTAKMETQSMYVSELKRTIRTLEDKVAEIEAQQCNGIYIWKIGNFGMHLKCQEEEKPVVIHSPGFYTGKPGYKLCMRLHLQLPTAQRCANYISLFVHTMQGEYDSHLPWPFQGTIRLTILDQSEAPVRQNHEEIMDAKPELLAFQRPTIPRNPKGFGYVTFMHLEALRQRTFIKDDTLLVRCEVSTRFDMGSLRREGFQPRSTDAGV
In short: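 Ligase activity was read as luminescence from anti-Flag/HRP detection of Flag-ubiquitin bound to casein-blocked Ni-plates alongside His-ubiquitin after a 1 h room-temperature reaction. Buffer: 62.5 mM Tris pH 7.5, 6.25 mM MgCl2, 1.0 mM DTT, 2 μM ATP; E1, Uev1a/Ubc13 and TRAF6 added last to start. IC50s derived across compound concentrations.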

A549 cells = test: Cell proliferation PAD assay, A549; format: cell-based; conditions: Homo sapiens, 48 hours
In short: (§1)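 Each line, seeded at 2,000 cells/well, received duplicate 6.3-fold compound dilutions (10 mM stock, diluted 500× into medium) one day after plating. Exposure lasted 48 h; fixed cells were DAPI-stained and photographed, and images were analysed for live, apoptotic and dead cell numbers.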

H1299 cells = test: Cell proliferation PAD assay, H1299; format: cell-based; conditions: Homo sapiens, 48 hours
In short: as §1

OVCAR8 cells = test: Cell proliferation PAD assay, OVCAR8; format: cell-based; conditions: Homo sapiens, OVCAR-8, 6pt, 48 hours
Description: (§2) Cell lines used are available from American Type Culture Collection (ATCC), for example, cell cultures containing A549 (ATCC# CCL-185), HeLa (ATCC# CCL-2), HCT116 ATTC# CCL-247), and H1299 (ATCC# CRL-5803) cells were maintained in T175 flasks following the ATCC recommended media and handling procedures. […] A 20,000 cells/ml solution was made for plating. Cells were plated in black Packard 96 well plates by placing 100 μl per well (2,000 cells per well). […] The definitions of the cell types used are as follows: A549 is lung carcinoma; HI 299 is non-small cell lung carcinoma; HI 155 is non-small cell lung carcinoma; AsPC-1 is pancreatic adenocarcinoma; Caov-3 is ovarian adenocarcinoma; COLO 205 is colorectal adenocarcinoma; DLD-1 colorectal adenocarcinoma; HCT116 is colorectal carcinoma; DU 145 is prostate carcinoma; ES-2 is ovarian clear cell carcinoma; H460 is large cell lung carcinoma; HELA is cervical adenocarcinoma; MIA PaCa-2 is pancreatice carcinoma; OVCAR-3 is ovarian adenocarcinoma; OVCAR8 is ovarian carcinoma; PC3 is prostate adenocarcinoma; SK-OV-3 is ovarian adenocarcinoma; SU86.86 is pancreatic carcinoma; TOV-21G is avarian clear cell carcinoma; U2OS is bone osteosarcoma; is ASPC-I is pancreatic adenocarcinoma; BXPC-3 is pabcreatic adenocarcinoma; HL60 is promyeloblast promyelocytic leukemia; K562 is bone marrow chronic myelogenous leukemia; L1210 is mouse lymphocytic leukemia; MOLT3 is T lymphoblast acute lymphoblastic leukemia; MOLT4 is T lymphoblast acute lymphoblastic leukemia; SW620 is colorectal adenocarcinoma; THP-1 is monocyte acute monocytic leukemia; U937 is histiocytic lymphoma; and UACC-257 is melanoma.
(§3) Compounds and additional media were added 24 hours after cell plating. […] All compound testing was done in duplicate using 6.3 fold dilutions starting with 10 mM. […] Taxol and at least one additional control were run on all plates. Three microliters of the compound master plate were added to deep well blocks containing 750 μl of RPMI media. One hundred microliters were transferred from the compound/media deep well blocks to the plated cells resulting in a 500 fold dilution of the compounds. Cells were grown at 37° C., 5% CO2 for 48 hours.
(§4) Cells to be analyzed by photography were fixed and stained. One hundred microliters of media were removed and 100 μl of 9.3% formamide was added to each well. Plates were left on the benchtop for 45 minutes. A staining solution containing 1.55 μl of 1 mg/ml DAPI added to 18.75 ml PBS was warmed for 15 minutes at 37° C. The cells were aspirated prior to washing with 100 μl of PBS. Seventy microliters of PBS were aspirated and 170 μl of the DAPI solution were added to each well of fixed cells. Plates were left at room temperature for one hour then aspirated and washed twice with 100 μl of PBS. The stained cells were left at 4° C. for a minimum of 16 hours before photographic analysis with Array Scan II (Cellomics). Analysis of the photographic images to determine numbers of live cells (proliferation), apoptotic cells and dead cells, were according to the methods described in U.S. Utility patent application Ser. No. 10/652,440, which incorporated herein in its entirety.

UACC-257 cells = test: Cell proliferation PAD assay, UACC-257; format: cell-based; conditions: Homo sapiens, UACC257 cells, 6pt, 48 hours
Description: as §2, §3, §4

DLD-1 cells = test: Cell proliferation PAD assay, DLD-1; format: cell-based; conditions: Homo sapiens, DLD1 cells, 6pt, 48 hours
Text: (§5) Table 3 illustrates the inhibitory activity of the compounds of the invention determined by the PAD assay described above in a number of cell types. Apoptosis was not
as §2
(§6) Compounds and additional media were added 24 hours after cell plating. A compound master plate was created with concentrations 500 times greater than the final concentration added to the cells. All compound testing was done in duplicate using 6.3 fold dilutions starting with 10 mM. All outside wells (and 4 internal wells) were DMSO controls. Taxol and at least one additional control were run on all plates. Three microliters of the compound master plate were added to deep well blocks containing 750 μl of RPMI media. One hundred microliters were transferred from the compound/media deep well blocks to the plated cells resulting in a 500 fold dilution of the compounds. Cells were grown at 37° C., 5% CO2 for 48 hours.
as §4

HCT116 cells = test: Cell proliferation PAD assay, HCT116; format: cell-based; conditions: Homo sapiens, HCT-116, 6pt, 48 hours, read-out: HCT116 6pt
Text: as §5, §2, §6, §4

HELA cells = test: Cell proliferation PAD assay, HeLa; format: cell-based; conditions: Homo sapiens, 6pt, 48 hours
Text: as §5, §2, §6, §4

U2OS cells = test: Cell proliferation PAD assay, U2OS; format: cell-based; conditions: Homo sapiens, 6pt, 48 hours
Text: as §5, §2, §6, §4

[1] = NCI-H1299, 3pt, read-out: H1299 3pt
[2] = NCI-H1299, 6pt, read-out: H1299 6pt

SMILES	pIC50 (TRAF6/Uev1A/Ubc13)	pIC50 (A549 cells; 3pt, read-out: A549 3pt)	pIC50 (A549 cells; 6pt, read-out: A549 6pt)	pIC50 (H1299 cells; [1])	pIC50 (H1299 cells; [2])	pIC50 (OVCAR8 cells)	pIC50 (UACC-257 cells)	pIC50 (DLD-1 cells)	pIC50 (HCT116 cells)	pIC50 (HELA cells)	pIC50 (U2OS cells)
COC(=O)c1ccc(Nc2ccc(S(=O)(=O)Nc3ccc(C(=O)OC)cc3)c3nonc23)cc1 [compound 9, Methyl 4-{[(7-{[4-(methoxycarbonyl)phenyl]amino}-2,1,3-benzoxadiazol-4-yl)sulfonyl]amino}benzoate]	≤ 4.70	≤ 4.70	4.70 to 6.00	≤ 4.70	≤ 4.70	≤ 4.70	≤ 4.70	–	–	–	–
COc1ccccc1NS(=O)(=O)c1cccc2nonc12 [compound 11, N-(2-methoxyphenyl)-2,1,3-benzoxadiazole-4-sulfonamide]	4.70 to 6.00	≤ 4.70	–	≤ 4.70	–	≤ 4.70	≤ 4.70	–	–	–	–
O=S(=O)(Nc1cccc2cccnc12)c1cccc2nonc12 [compound 64, N-quinolin-8-yl-2,1,3-benzoxadiazole-4-sulfonamide]	–	4.70 to 6.00	> 6.00	4.70 to 6.00	> 6.00	–	–	> 6.00	4.70 to 6.00	4.70 to 6.00	> 6.00
O=[N+]([O-])c1cc(Cl)c(Oc2ccc(S(=O)(=O)Nc3cccc4nonc34)cc2Cl)c(Cl)c1 [compound 79, N-2,1,3-benzoxadiazol-4-yl-3-chloro-4-(2,6-dichloro-4-nitrophenoxy)benzenesulfonamide]	4.70 to 6.00	4.70 to 6.00	4.70 to 6.00	4.70 to 6.00	4.70 to 6.00	4.70 to 6.00	≤ 4.70	–	–	–	–
O=C(CN1CCN(c2ccc([N+](=O)[O-])c3nonc23)CC1)N1CCOCC1 [compound 107, 4-[4-(2-morpholin-4-yl-2-oxoethyl)piperazin-1-yl]-7-nitro-2,1,3-benzoxadiazole]	≤ 4.70	≤ 4.70	≤ 4.70	≤ 4.70	≤ 4.70	≤ 4.70	≤ 4.70	–	–	–	–
